Reference: the supplement of paper PMC10307832

How the values were obtained:
Assay in all cases: relative viability (nuclei count vs DMSO), 5 days (fraction); higher = more cells survive
[1] = compound: C1=CC2=NC=CN=C2C=C1/C=C/3\C(=O)NC(=O)S3 + CCNC(=O)c1noc(-c2cc(C(C)C)c(O)cc2O)c1-c1ccc(CN2CCOCC2)cc1 [Luminespib] (partner 0.01 µM)
Procedure, shortened: (§1)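 Five library-drug doses in √10 steps were combined with a fixed anchor-drug dose, or a single drug was given alone, by pin tool to lung cancer cell lines in 1536-well plates the day after seeding. Nuclei were stained and counted after 5 days. Relative viability is the nuclei count in treated wells over that in vehicle wells, taken as the median of duplicate plates.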

BGJ398 + Pictilisib = compound: CCN1CCN(c2ccc(Nc3cc(N(C)C(=O)Nc4c(Cl)c(OC)cc(OC)c4Cl)ncn3)cc2)CC1 [BGJ398] + CS(=O)(=O)N1CCN(Cc2cc3nc(-c4cccc5[nH]ncc45)nc(N4CCOCC4)c3s2)CC1 [Pictilisib] (partner 1 µM)
Procedure, shortened: as §1

[2] = compound: C1=CC2=NC=CN=C2C=C1/C=C/3\C(=O)NC(=O)S3 + CC(=O)Nc1cccc(-n2c(=O)n(C3CC3)c(=O)c3c(Nc4ccc(I)cc4F)n(C)c(=O)c(C)c32)c1 [Trametinib] (partner 0.02 µM)
Procedure, shortened: as §1

BGJ398 + Olaparib = compound: CCN1CCN(c2ccc(Nc3cc(N(C)C(=O)Nc4c(Cl)c(OC)cc(OC)c4Cl)ncn3)cc2)CC1 [BGJ398] + O=C(c1cc(Cc2n[nH]c(=O)c3ccccc23)ccc1F)N1CCN(C(=O)C2CC2)CC1 [Olaparib] (partner 8 µM)
Procedure, shortened: as §1

| Cell Line | relative viability ([1]; first compound 0.02 µM) | relative viability ([1]; first compound 0.06325 µM) | relative viability ([1]; first compound 0.2 µM) | relative viability ([1]; first compound 0.6325 µM) | relative viability ([1]; first compound 2 µM) | relative viability (BGJ398 + Pictilisib; first compound 0.01 µM) | relative viability (BGJ398 + Pictilisib; first compound 0.03162 µM) | relative viability (BGJ398 + Pictilisib; first compound 0.1 µM) | relative viability (BGJ398 + Pictilisib; first compound 0.3162 µM) | relative viability (BGJ398 + Pictilisib; first compound 1 µM) | relative viability ([2]; first compound 0.02 µM) | relative viability ([2]; first compound 0.06325 µM) | relative viability ([2]; first compound 0.2 µM) | relative viability ([2]; first compound 0.6325 µM) | relative viability ([2]; first compound 2 µM) | relative viability (BGJ398 + Olaparib; first compound 0.01 µM) | relative viability (BGJ398 + Olaparib; first compound 0.03162 µM) | relative viability (BGJ398 + Olaparib; first compound 0.1 µM) | relative viability (BGJ398 + Olaparib; first compound 0.3162 µM) | relative viability (BGJ398 + Olaparib; first compound 1 µM) |
| --- | --- | --- | --- | --- | --- | --- | --- | --- | --- | --- | --- | --- | --- | --- | --- | --- | --- | --- | --- | --- |
| 201T | 1.04 | 1.04 | 1.04 | 1.02 | 0.986 | 0.804 | 0.659 | 0.641 | 0.652 | 0.559 | 0.669 | 0.726 | 0.718 | 0.736 | 0.713 | 0.907 | 0.791 | 0.858 | 0.822 | 0.843 |
| A549 |  |  |  |  |  | 0.486 | 0.475 | 0.453 | 0.535 | 0.596 |  |  |  |  |  | 0.341 | 0.436 | 0.6 | 0.231 | 0.231 |
| A-427 | 0.978 | 0.958 | 1 | 0.842 | 0.991 | 0.622 | 0.644 | 0.506 | 0.334 | 0.158 | 0.777 | 0.773 | 0.725 | 0.75 | 0.596 | 0.746 | 0.713 | 0.761 | 0.736 | 0.538 |
| ABC-1 |  | 0.872 | 0.616 | 0.519 | 0.982 | 0.63 | 0.721 | 0.722 | 0.693 | 0.916 |  |  |  |  |  | 0.864 | 0.934 | 0.887 |  | 0.616 |
| BEN | 0.631 | 0.19 | 0.402 | 0.332 | 0.314 | 0.491 | 0.609 | 0.534 | 0.478 | 0.473 | 1.06 | 0.885 | 0.986 | 1.05 | 0.856 | 1.09 | 1.19 | 1.18 | 0.991 | 0.861 |
| CAL-12T | 0.456 | 0.417 | 0.686 | 0.623 | 0.234 | 0.423 | 0.441 | 0.532 | 0.409 | 0.342 | 0.398 | 0.301 | 0.426 | 0.309 | 0.271 | 0.688 | 0.819 | 0.613 | 0.773 | 0.666 |
| COR-L23 | 0.684 | 0.842 | 0.77 | 0.581 | 0.652 | 0.691 | 0.826 | 0.788 | 0.808 | 0.87 | 0.557 | 0.596 | 0.617 | 0.567 | 0.422 | 0.337 | 0.337 | 0.308 | 0.337 | 0.313 |
| COR-L 105 | 0.727 | 0.997 | 0.816 | 0.695 | 0.618 | 0.314 | 0.442 | 0.417 | 0.328 | 0.387 | 0.422 | 0.549 | 0.451 | 0.408 | 0.423 | 0.627 | 0.647 | 0.687 | 0.733 | 0.639 |
| Calu-6 |  |  |  |  |  | 0.848 | 0.987 | 0.935 | 0.898 | 0.991 |  |  |  |  |  | 0.599 | 0.605 | 0.578 | 0.58 | 0.59 |
| ChaGo-K-1 | 0.553 | 0.454 | 0.762 | 0.541 | 0.572 | 0.802 | 0.702 | 0.561 | 0.608 | 0.314 | 0.9 | 0.785 | 0.888 | 0.887 | 0.872 | 0.42 | 0.423 | 0.437 | 0.387 | 0.434 |
| EBC-1 |  |  |  |  |  | 0.41 | 0.414 | 0.357 | 0.515 | 0.451 |  |  |  |  |  | 0.717 | 0.717 | 0.679 | 0.737 | 0.668 |
| EKVX | 0.846 | 0.636 | 0.831 | 0.839 | 0.776 | 0.437 | 0.395 | 0.479 | 0.406 | 0.46 | 0.301 | 0.392 | 0.32 | 0.322 | 0.33 | 0.872 | 0.884 | 0.812 | 0.74 | 0.696 |
| EMC-BAC-2 | 1.13 | 1.22 | 1.17 | 1.09 | 1.02 | 0.503 | 0.561 | 0.513 | 0.476 | 0.465 | 0.92 | 0.944 | 0.892 | 0.879 | 0.713 | 0.456 | 0.568 | 0.519 | 0.547 | 0.456 |
| EPLC-272H | 0.447 | 0.214 | 0.328 | 0.267 | 0.198 | 0.323 | 0.296 | 0.255 | 0.255 | 0.18 | 0.253 | 0.261 | 0.273 | 0.296 | 0.293 | 0.626 | 0.829 | 0.594 | 0.797 | 0.656 |
| H3255 | 0.879 | 0.793 | 0.909 | 0.857 | 0.809 | 0.484 | 0.138 | 0.462 | 0.344 | 0.506 | 0.607 | 0.698 | 0.643 | 0.6 | 0.699 | 0.527 | 0.537 | 0.604 | 0.551 | 0.55 |
| HARA | 0.811 | 0.643 | 0.706 | 0.742 | 0.797 | 0.346 | 0.426 | 0.371 | 0.283 | 0.185 | 0.477 | 0.632 | 0.507 | 0.788 | 0.672 | 0.983 | 0.651 | 0.875 | 0.902 | 0.722 |
| HCC-15 | 0.278 | 0.197 | 0.271 | 0.304 | 0.214 | 0.67 | 0.703 | 0.79 | 0.805 | 0.723 | 0.41 | 0.393 | 0.397 | 0.353 | 0.263 | 0.699 | 0.749 | 0.712 | 0.732 | 0.725 |
| HCC-44 | 1 | 0.829 | 1.06 | 1.04 | 0.868 | 0.544 | 0.671 | 0.682 | 0.602 | 0.401 | 0.961 | 1 | 1.05 | 1.12 | 1 | 0.963 | 0.952 | 1.02 | 0.931 | 0.953 |
